Laboratory results as given in patent US7160916B2, “Method of increasing bone density or treating osteoporosis” (Yung Shin Pharmaceutical Ind. Co., Ltd., priority 2003, dated 2007).

Key:
[1] = test system: adult male rats; experiment: Bone loss induced by the cut of sciatic nerve; format: in vivo, rat; set-up: Tibia BMD / Tibia BMC / Femur BMD / Femur BMC: unit not given here; details: for Bone volume / Femur BMC / Femur BMD / Femur length / Femur weight / Tibia BMC / Tibia BMD / Tibia length / Tibia weight: i.p. 1 mg/kg daily for 1 month, mean ± S.E., n=10
Source text: Bone histomorphometry: After formalin fixation of tibia was completed, the tibiae were then decalcified in 0.5 N hydrochloric acid, dehydrated in an ascending series of ethanol solution and acetone, and embedded in paraffin. Serial sections (5 μm) were cut longitudinally and stained with Mayer's hematoxylin-eosin solution (Yang et al. (1993) Calcif Tissue Int 52:57–61). Images of the growth plate and proximal tibia were photographed using a photoMicroGraphic Digitize integrate System (MGDS; Total-Integra Technology Co., Ltd., Taipei, Taiwan). Bone volume measurements were performed on the whole secondary spongiosa, which is located under the primary spongiosa and characterized by a network of larger trabeculae. Bone volumes were calculated using an image analysis software. All measurements were done in a single-blind fashion. Ovariectomy and cut of sciatic nerve: Ovariectomy and cut of sciatic nerve were performed in adult female and male rats (3 month-old), respectively. After surgery, the rats were injected with Indazole 1 (i.p., 1 mg/Kg) or a vehicle daily for 4 weeks. On the day following the last injection, the rats were sacrificed and their tibia and femur were removed. Tibia and femur Preparation: At the end of the program, the rats were sacrificed by decapitation. The tibiae were removed, cleaned of soft tissue, and the length of the tibia was measured with a precision caliper (±0.05 mm) as described by Weinreb et al. (1991) J Bone Miner Res 6:725–731. The tibiae were fixed in 10% formaldehyde for 48 h at 4° C. for bone histomorphometry analysis. Some of the tibia and femur were also removed and kept at −20° C. for bone mineral analysis. Analysis of bone mineral density (BMD) and content (BMC): BMD and BMC of the tibia and femur were measured with a dual-energy X-ray absorptiometer (DEXA, XR-26; Norland, Fort Atkinson, Wis.). The mode adapted to the measurements of small subjects was adopted. A coefficient of variation of 0.7% was calculated from daily measurements of BMD on a lumbar phantom for more than 1 year (Yang et al. (1998) Calcif Tissue Int 63:86–90). The tibia and femur were thawed to room temperature before bone mineral analysis. The whole tibiae and femur were scanned and BMD and BMC were measured by absorptiometer.

[2] = test system: osteoclasts; experiment: Assay of bone resorption of osteoclast; format: cell-based, rat; details: 3-day incubation after removal of M-CSF and sRANKL, versus control
Procedure: Assay of bone resorption of osteoclast: Osteoclast precursors were isolated from rat long bones as mentioned above. The cells were re-suspended in a complete DMEM medium and plated into a calcium phosphate apatite-coated 24-well plate, OAAS (Oscotec, OCT USA Inc.) at 1×10^6 cells/0.5 ml/well. The cells were cultured for 5 days in the presence of M-CSF (20 ng/ml) plus sRANKL (50 ng/ml). Indazole 1 was injected daily for additional 3 days in the absence of M-CSF and sRANKL. Culture was terminated on day 8 and the remaining cells in the plate were lysed using 1 N NaOH. Five images per well were obtained using an inverted microscope (200×), and resorbed area was measured using an image analyzer. Local injection Male SD rats weighing 70–88 gm were used. Implantation of a cannula (22G) was done from the posteriolateral side into the proximal tibial metaphysis in both limbs of rats anesthetized with pentobarbital. The cannula had its outer end in the subcutaneous tissue. Indazole 1 was percutaneously injected through the cannula into the proximal tibia once/day for 1 week. The same concentration of DMSO diluted with normal saline was injected into the right side for comparison. On day 14, the rats were sacrificed and tibiae were fixed in 10% formaldehyde for 48 h at 4° C. The effect of Indazole 1 on resorption activity of osteoclasts was also examined. […]

[3] = test system: Primary osteoblast cells; experiment: von Kossa staining, bone nodule formation; format: cell-based, rat; details: treatment for 2 weeks
Procedure: Primary osteoblast cultures: Primary osteoblast cells were prepared from calvaria of 18-day-old fetal Sprague-Dawley (SD) rats according to the following method: Pregnant rats were put in anesthesia using intraperitoneal injection of trichloroacetaldehyde (200 mg/kg). The calvaria of the fetal rats were then dissected with aseptic technique. Soft tissues were removed under a dissecting microscope. The calvaria were divided into small pieces and then treated with 0.1% collagenase (Sigma Chemical, St. Louis, Mo.) solution for 10 minutes at 37° C. The cells released from the calvariae by two 20-minute sequential collagenase digestions were pooled and filtered through 70 μm nylon filters (Falcon, BD BioSciences, San Jose, Calif.). […]
von Kossa staining: Osteoblasts were cultured in DMEM containing 50 μg/ml vitamin C and 10 mM β-glycerophosphate for 2 weeks and the medium was changed every 3 days. […] The number of nodules formed per well was counted under a light microscope. Collagen synthesis was determined by measuring the 4-hydroxyproline content in cultured osteoblasts. […] After lyophilizing and reconstituting a lysate in distilled water, the amount of 4-hydroxyproline was determined by spectrophotometry at 550 nm as described by Berg (1982) Meth Enzymol. […]

OCc1ccc(-c2nn(Cc3ccccc3)c3ccccc23)o1 [Indazole 1, 1-benzyl-3-(5′-hydroxymethyl-2′-furyl)-indazole]
bone loss induced by nerve section ([1]; 1 mg/kg daily for 4 weeks immediately after the cut of sciatic nerve): antagonized the bone loss | Bone volume ([1]; Contralateral side): 11.9 ± 0.98% | Femur BMC ([1]; Contralateral side): 0.419 ± 0.016 | Femur BMD ([1]; Contralateral side): 0.132 ± 0.003 | Femur length ([1]; Contralateral side): 3.95 ± 0.02 cm | Femur weight ([1]; Contralateral side): 1.16 ± 0.03 g | Tibia BMC ([1]; Contralateral side): 0.282 ± 0.013 | Tibia BMD ([1]; Contralateral side): 0.106 ± 0.002 | Tibia length ([1]; Contralateral side): 4.36 ± 0.01 cm | Tibia weight ([1]; Contralateral side): 0.92 ± 0.03 g | Bone volume ([1]; Surgery side): 9.43 ± 0.8% | Femur BMC ([1]; Surgery side): 0.394 ± 0.015 | Femur BMD ([1]; Surgery side): 0.129 ± 0.003 | Femur length ([1]; Surgery side): 3.96 ± 0.01 cm | Femur weight ([1]; Surgery side): 1.17 ± 0.03 g | Tibia BMC ([1]; Surgery side): 0.298 ± 0.014 | Tibia BMD ([1]; Surgery side): 0.106 ± 0.002 | Tibia length ([1]; Surgery side): 4.35 ± 0.01 cm | Tibia weight ([1]; Surgery side): 0.91 ± 0.03 g | resorption activity of osteoclasts [2]: significantly inhibited | number of bone nodules (von Kossa staining) [3]: increased the number of bone nodules in a concentration-dependent manner
